{
  "source": "patent US8192962B2",
  "about": "“Processes for detecting toxic substances” (Daikin Industries, Ltd., priority 2001, dated 2012)",
  "tested_on": "Energy system protein genes",
  "assay": "DNA chip mRNA expression in yeast, energy system protein genes (Table 4)",
  "assay_type": "cell-based, Saccharomyces cerevisiae S288C",
  "summary_of_the_method": "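Measured as treated-to-untreated fluorescence ratio on a full-genome yeast DNA chip. Cells (S288C, YPD, 25° C.) were exposed in log phase for two hours to one chemical, dosed to curb growth without killing.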",
  "data": [
    {"smiles": "S=C([S-])NCCNC(=S)[S-].[Zn+2]", "note": "[(11), zinc N,N′-ethylenebis(dithiocarbamate)]", "values": [
      {"measurement": "The level of expressed mRNA in the presence of chemical substance/The level of expressed mRNA in the absence of chemical substance", "setting": "yeast gene YJL166W, cells incubated two hours with the chemical substance", "result": 1.4},
      {"measurement": "The level of expressed mRNA in the presence of chemical substance/The level of expressed mRNA in the absence of chemical substance", "setting": "yeast gene YJL216C, cells incubated two hours with the chemical substance", "result": 1.1},
      {"measurement": "The level of expressed mRNA in the presence of chemical substance/The level of expressed mRNA in the absence of chemical substance", "setting": "yeast gene YJR009C", "result": 1.1},
      {"measurement": "The level of expressed mRNA in the presence of chemical substance/The level of expressed mRNA in the absence of chemical substance", "setting": "yeast gene YJR048W", "result": 1.0},
      {"measurement": "The level of expressed mRNA in the presence of chemical substance/The level of expressed mRNA in the absence of chemical substance", "setting": "yeast gene YJR121W, cells incubated two hours with the chemical substance", "result": 0.9},
      {"measurement": "The level of expressed mRNA in the presence of chemical substance/The level of expressed mRNA in the absence of chemical substance", "setting": "yeast gene YJR155W", "result": 15.4},
      {"measurement": "The level of expressed mRNA in the presence of chemical substance/The level of expressed mRNA in the absence of chemical substance", "setting": "yeast gene YKL016C, cells incubated two hours with the chemical substance", "result": 1.3},
      {"measurement": "The level of expressed mRNA in the presence of chemical substance/The level of expressed mRNA in the absence of chemical substance", "setting": "yeast gene YKL060C, cells incubated two hours with the chemical substance", "result": 2.1},
      {"measurement": "The level of expressed mRNA in the presence of chemical substance/The level of expressed mRNA in the absence of chemical substance", "setting": "yeast gene YKL141W, cells incubated two hours with the chemical substance", "result": 1.2},
      {"measurement": "The level of expressed mRNA in the presence of chemical substance/The level of expressed mRNA in the absence of chemical substance", "setting": "yeast gene YKL148C, cells incubated two hours with the chemical substance", "result": 1.5},
      {"measurement": "The level of expressed mRNA in the presence of chemical substance/The level of expressed mRNA in the absence of chemical substance", "setting": "yeast gene YKR009C, cells incubated two hours with the chemical substance", "result": 1.2},
      {"measurement": "The level of expressed mRNA in the presence of chemical substance/The level of expressed mRNA in the absence of chemical substance", "setting": "yeast gene YKR058W, cells incubated two hours with the chemical substance, 25° C., YPD medium", "result": 1.5},
      {"measurement": "The level of expressed mRNA in the presence of chemical substance/The level of expressed mRNA in the absence of chemical substance", "setting": "yeast gene YKR097W", "result": 0.8},
      {"measurement": "The level of expressed mRNA in the presence of chemical substance/The level of expressed mRNA in the absence of chemical substance", "setting": "yeast gene YLL041C, cells incubated two hours with the chemical substance", "result": 1.3},
      {"measurement": "The level of expressed mRNA in the presence of chemical substance/The level of expressed mRNA in the absence of chemical substance", "setting": "yeast gene YLR038C, cells incubated two hours with the chemical substance", "result": 1.4},
      {"measurement": "The level of expressed mRNA in the presence of chemical substance/The level of expressed mRNA in the absence of chemical substance", "setting": "yeast gene YLR044C, cells incubated two hours with the chemical substance", "result": 1.1},
      {"measurement": "The level of expressed mRNA in the presence of chemical substance/The level of expressed mRNA in the absence of chemical substance", "setting": "yeast gene YLR134W, cells incubated two hours with the chemical substance", "result": 1.1},
      {"measurement": "The level of expressed mRNA in the presence of chemical substance/The level of expressed mRNA in the absence of chemical substance", "setting": "yeast gene YLR258W, cells incubated two hours with the chemical substance", "result": 1.2},
      {"measurement": "The level of expressed mRNA in the presence of chemical substance/The level of expressed mRNA in the absence of chemical substance", "setting": "yeast gene YLR284C, cells incubated two hours with the chemical substance", "result": 1.5},
      {"measurement": "The level of expressed mRNA in the presence of chemical substance/The level of expressed mRNA in the absence of chemical substance", "setting": "yeast gene YLR295C, cells incubated two hours with the chemical substance, 25° C., YPD medium", "result": 1.3},
      {"measurement": "The level of expressed mRNA in the presence of chemical substance/The level of expressed mRNA in the absence of chemical substance", "setting": "yeast gene YLR304C, cells incubated two hours with the chemical substance", "result": 1.6},
      {"measurement": "The level of expressed mRNA in the presence of chemical substance/The level of expressed mRNA in the absence of chemical substance", "setting": "yeast gene YLR345W", "result": 2.5},
      {"measurement": "The level of expressed mRNA in the presence of chemical substance/The level of expressed mRNA in the absence of chemical substance", "setting": "yeast gene YLR354C, cells incubated two hours with the chemical substance", "result": 1.7},
      {"measurement": "The level of expressed mRNA in the presence of chemical substance/The level of expressed mRNA in the absence of chemical substance", "setting": "yeast gene YLR377C, cells incubated two hours with the chemical substance", "result": 0.6},
      {"measurement": "The level of expressed mRNA in the presence of chemical substance/The level of expressed mRNA in the absence of chemical substance", "setting": "yeast gene YLR395C, cells incubated two hours with the chemical substance", "result": 1.5},
      {"measurement": "The level of expressed mRNA in the presence of chemical substance/The level of expressed mRNA in the absence of chemical substance", "setting": "yeast gene YML087C", "result": 1.6},
      {"measurement": "The level of expressed mRNA in the presence of chemical substance/The level of expressed mRNA in the absence of chemical substance", "setting": "yeast gene YML120C, cells incubated two hours with the chemical substance", "result": 1.3},
      {"measurement": "The level of expressed mRNA in the presence of chemical substance/The level of expressed mRNA in the absence of chemical substance", "setting": "yeast gene YML129C, cells incubated two hours with the chemical substance", "result": 1.2},
      {"measurement": "The level of expressed mRNA in the presence of chemical substance/The level of expressed mRNA in the absence of chemical substance", "setting": "yeast gene YMR073C, cells incubated two hours with the chemical substance", "result": 0.9},
      {"measurement": "The level of expressed mRNA in the presence of chemical substance/The level of expressed mRNA in the absence of chemical substance", "setting": "yeast gene YMR118C", "result": 0.7},
      {"measurement": "The level of expressed mRNA in the presence of chemical substance/The level of expressed mRNA in the absence of chemical substance", "setting": "yeast gene YMR205C, cells incubated two hours with the chemical substance", "result": 1.0},
      {"measurement": "The level of expressed mRNA in the presence of chemical substance/The level of expressed mRNA in the absence of chemical substance", "setting": "yeast gene YMR261C, cells incubated two hours with the chemical substance", "result": 0.8},
      {"measurement": "The level of expressed mRNA in the presence of chemical substance/The level of expressed mRNA in the absence of chemical substance", "setting": "yeast gene YMR267W, cells incubated two hours with the chemical substance, 25° C., YPD medium", "result": 1.0},
      {"measurement": "The level of expressed mRNA in the presence of chemical substance/The level of expressed mRNA in the absence of chemical substance", "setting": "yeast gene YMR323W, cells incubated two hours with the chemical substance", "result": 2.5},
      {"measurement": "The level of expressed mRNA in the presence of chemical substance/The level of expressed mRNA in the absence of chemical substance", "setting": "yeast gene YNL071W", "result": 1.6},
      {"measurement": "The level of expressed mRNA in the presence of chemical substance/The level of expressed mRNA in the absence of chemical substance", "setting": "yeast gene YNL202W, cells incubated two hours with the chemical substance", "result": 1.2},
      {"measurement": "The level of expressed mRNA in the presence of chemical substance/The level of expressed mRNA in the absence of chemical substance", "setting": "yeast gene YNL241C", "result": 3.0},
      {"measurement": "The level of expressed mRNA in the presence of chemical substance/The level of expressed mRNA in the absence of chemical substance", "setting": "yeast gene YNL331C", "result": 21.8},
      {"measurement": "The level of expressed mRNA in the presence of chemical substance/The level of expressed mRNA in the absence of chemical substance", "setting": "yeast gene YOL086C, cells incubated two hours with the chemical substance", "result": 2.6},
      {"measurement": "The level of expressed mRNA in the presence of chemical substance/The level of expressed mRNA in the absence of chemical substance", "setting": "yeast gene YOL165C", "result": 17.6},
      {"measurement": "The level of expressed mRNA in the presence of chemical substance/The level of expressed mRNA in the absence of chemical substance", "setting": "yeast gene YOR142W, cells incubated two hours with the chemical substance", "result": 1.5},
      {"measurement": "The level of expressed mRNA in the presence of chemical substance/The level of expressed mRNA in the absence of chemical substance", "setting": "yeast gene YOR178C, cells incubated two hours with the chemical substance", "result": 4.1},
      {"measurement": "The level of expressed mRNA in the presence of chemical substance/The level of expressed mRNA in the absence of chemical substance", "setting": "yeast gene YOR388C, cells incubated two hours with the chemical substance", "result": 1.3},
      {"measurement": "The level of expressed mRNA in the presence of chemical substance/The level of expressed mRNA in the absence of chemical substance", "setting": "yeast gene YPL031C, cells incubated two hours with the chemical substance", "result": 1.4},
      {"measurement": "The level of expressed mRNA in the presence of chemical substance/The level of expressed mRNA in the absence of chemical substance", "setting": "yeast gene YPL061W, cells incubated two hours with the chemical substance", "result": 1.1},
      {"measurement": "The level of expressed mRNA in the presence of chemical substance/The level of expressed mRNA in the absence of chemical substance", "setting": "yeast gene YPL088W", "result": 1.1},
      {"measurement": "The level of expressed mRNA in the presence of chemical substance/The level of expressed mRNA in the absence of chemical substance", "setting": "yeast gene YPL171C", "result": 37.0},
      {"measurement": "The level of expressed mRNA in the presence of chemical substance/The level of expressed mRNA in the absence of chemical substance", "setting": "yeast gene YPL240C", "result": 1.0},
      {"measurement": "The level of expressed mRNA in the presence of chemical substance/The level of expressed mRNA in the absence of chemical substance", "setting": "yeast gene YPL262W, cells incubated two hours with the chemical substance", "result": 1.4},
      {"measurement": "The level of expressed mRNA in the presence of chemical substance/The level of expressed mRNA in the absence of chemical substance", "setting": "yeast gene YPL275W, cells incubated two hours with the chemical substance", "result": 0.9},
      {"measurement": "The level of expressed mRNA in the presence of chemical substance/The level of expressed mRNA in the absence of chemical substance", "setting": "yeast gene YPL276W, cells incubated two hours with the chemical substance", "result": "−0.4"},
      {"measurement": "The level of expressed mRNA in the presence of chemical substance/The level of expressed mRNA in the absence of chemical substance", "setting": "yeast gene YPR048W, cells incubated two hours with the chemical substance", "result": 1.0},
      {"measurement": "The level of expressed mRNA in the presence of chemical substance/The level of expressed mRNA in the absence of chemical substance", "setting": "yeast gene YPR184W, cells incubated two hours with the chemical substance", "result": 3.6}
    ]}
  ]
}
